We go through one molecule from publication PMC5218480 (PLoS ONE, 2017).

In the test the test system is MV-4-11 cells. Briefly: Gene expression microarray analysis (Affymetrix PrimeView) and GSEA. In kind it is cell-based, human. Also noted: RFU PODN (11730768_x_at) / Fold change /veh PODN (11730768_x_at) / RFU LINC00158 (11744669_a_at) / Fold change /veh LINC00158 (11744669_a_at) / RFU DUSP10 (11751237_a_at) / Fold change /veh DUSP10 (11751237_a_at) / RFU ID3 (11757404_x_at) / Fold change /veh ID3 (11757404_x_at) / RFU PLEKHG5 (11737974_s_at) / Fold change /veh PLEKHG5 (11737974_s_at) / RFU LRRC4B (11730491_at) / Fold change /veh LRRC4B (11730491_at) / RFU GIMAP4 (11747438_a_at) / Fold change /veh GIMAP4 (11747438_a_at) / RFU KRT8 (11758183_x_at) / Fold change /veh KRT8 (11758183_x_at) / RFU CNN1 (11734310_a_at) / Fold change /veh CNN1 (11734310_a_at) / RFU VPS37D (11726825_at) / Fold change /veh VPS37D (11726825_at) / RFU C10orf10 (11716522_x_at) / Fold change /veh C10orf10 (11716522_x_at) / RFU KIR2DL2 /// KIR2DL4 /// KIR2DL5A /// KIR2DL5B /// KIR2DS1 /// KIR2DS2 /// KIR2DS3 /// KIR2DS4 /// KIR3DL3 /// KIR3DL3 /// KIR3DS1 (11738374_at) / Fold change /veh KIR2DL2 /// KIR2DL4 /// KIR2DL5A /// KIR2DL5B /// KIR2DS1 /// KIR2DS2 /// KIR2DS3 /// KIR2DS4 /// KIR3DL3 /// KIR3DL3 /// KIR3DS1 (11738374_at) / RFU C1QL1 (11718748_at) / Fold change /veh C1QL1 (11718748_at) / RFU TMPRSS4 (11747572_a_at) / Fold change /veh TMPRSS4 (11747572_a_at) / RFU HAMP (11756126_x_at) / Fold change /veh HAMP (11756126_x_at) / RFU RNFT2 (11725882_a_at) / Fold change /veh RNFT2 (11725882_a_at) / RFU NR4A2 (11747474_a_at) / Fold change /veh NR4A2 (11747474_a_at) / RFU ABCC12 (11746883_a_at) / Fold change /veh ABCC12 (11746883_a_at) / RFU TMEM136 (11760407_x_at) / Fold change /veh TMEM136 (11760407_x_at) / RFU CLDN22 /// WWC2 (11732394_at) / Fold change /veh CLDN22 /// WWC2 (11732394_at) / RFU HLA-DPB1 (11760878_x_at) / Fold change /veh HLA-DPB1 (11760878_x_at) / RFU SPINT1 (11716480_a_at) / Fold change /veh SPINT1 (11716480_a_at) / RFU GAP43 (11754022_s_at) / Fold change /veh GAP43 (11754022_s_at) / RFU A4GNT (11735810_at) / Fold change /veh A4GNT (11735810_at) / RFU PRB3 (11715151_x_at) / Fold change /veh PRB3 (11715151_x_at) / RFU TUBB4B (11761932_at) / Fold change /veh TUBB4B (11761932_at) / RFU CAPN14 (11732068_a_at) / Fold change /veh CAPN14 (11732068_a_at) / RFU TMCC2 (11721928_a_at) / Fold change /veh TMCC2 (11721928_a_at) / RFU IRGQ (11745062_a_at) / Fold change /veh IRGQ (11745062_a_at) / RFU FAM174B (11720279_a_at) / Fold change /veh FAM174B (11720279_a_at) / RFU TMPRSS4 (11748680_a_at) / Fold change /veh TMPRSS4 (11748680_a_at) / RFU FAM212B (11763350_a_at) / Fold change /veh FAM212B (11763350_a_at) / RFU PLEKHG5 (11743358_a_at) / Fold change /veh PLEKHG5 (11743358_a_at) / RFU ZSCAN30 (11745921_a_at) / Fold change /veh ZSCAN30 (11745921_a_at) / RFU CMKLR1 (11741424_a_at) / Fold change /veh CMKLR1 (11741424_a_at) / RFU LOC101060620 /// MAPK8IP1 (11723275_at) / Fold change /veh LOC101060620 /// MAPK8IP1 (11723275_at) / RFU SPTSSB (11747773_x_at) / Fold change /veh SPTSSB (11747773_x_at) / RFU PRSS12 (11739890_at) / Fold change /veh PRSS12 (11739890_at) / RFU BIN1 (11741810_x_at) / Fold change /veh BIN1 (11741810_x_at) / RFU WNT11 (11732464_a_at) / Fold change /veh WNT11 (11732464_a_at) / RFU C10orf10 (11716521_a_at) / Fold change /veh C10orf10 (11716521_a_at) / RFU C5orf56 (11738089_at) / Fold change /veh C5orf56 (11738089_at) / RFU CYB561 (11721691_x_at) / Fold change /veh CYB561 (11721691_x_at) / RFU ANKRD19P (11752326_a_at) / Fold change /veh ANKRD19P (11752326_a_at) / RFU OR2T12 /// OR2T33 /// OR2T8 (11738714_s_at) / Fold change /veh OR2T12 /// OR2T33 /// OR2T8 (11738714_s_at) / RFU VCAN (11748164_a_at) / Fold change /veh VCAN (11748164_a_at) / RFU JSRP1 (11732532_at) / Fold change /veh JSRP1 (11732532_at) / RFU KRTAP10-11 (11738290_x_at) / Fold change /veh KRTAP10-11 (11738290_x_at) / RFU MYO3A (11730013_a_at) / Fold change /veh MYO3A (11730013_a_at) / RFU EBF3 (11725865_a_at) / Fold change /veh EBF3 (11725865_a_at) / RFU CAMK2N1 (11719241_x_at) / Fold change /veh CAMK2N1 (11719241_x_at) / RFU C5orf56 (11738088_a_at) / Fold change /veh C5orf56 (11738088_a_at) / RFU OLFML3 (11715873_a_at) / Fold change /veh OLFML3 (11715873_a_at) / RFU LOC100653217 /// NTM (11731650_a_at) / Fold change /veh LOC100653217 /// NTM (11731650_a_at) / RFU MAPK11 (11762145_a_at) / Fold change /veh MAPK11 (11762145_a_at) / RFU FIZ1 (11724087_x_at) / Fold change /veh FIZ1 (11724087_x_at) / RFU OASL (11726364_x_at) / Fold change /veh OASL (11726364_x_at) / RFU SOX15 (11748057_x_at) / Fold change /veh SOX15 (11748057_x_at) / RFU CD79A (11719716_a_at) / Fold change /veh CD79A (11719716_a_at) / RFU HIST1H1D (11736915_at) / Fold change /veh HIST1H1D (11736915_at) / RFU CASKIN2 (11723855_a_at) / Fold change /veh CASKIN2 (11723855_a_at) / RFU LOC730098 (11760151_x_at) / Fold change /veh LOC730098 (11760151_x_at) / RFU OR4N2 (11742367_at) / Fold change /veh OR4N2 (11742367_at) / RFU PRRT2 (11749266_a_at) / Fold change /veh PRRT2 (11749266_a_at) / RFU SNX32 (11753110_a_at) / Fold change /veh SNX32 (11753110_a_at) / RFU CDHR5 (11726645_a_at) / Fold change /veh CDHR5 (11726645_a_at) / RFU RCAN1 (11760418_a_at) / Fold change /veh RCAN1 (11760418_a_at) / RFU FAM167A (11723789_a_at) / Fold change /veh FAM167A (11723789_a_at) / RFU FAM26E (11764081_at) / Fold change /veh FAM26E (11764081_at) / RFU ISYNA1 (11749810_s_at) / Fold change /veh ISYNA1 (11749810_s_at) / RFU ACY1 (11761880_at) / Fold change /veh ACY1 (11761880_at) / RFU 11764098_at / Fold change /veh 11764098_at / RFU SAMD14 (11745864_x_at) / Fold change /veh SAMD14 (11745864_x_at) / RFU NPB (11741838_a_at) / Fold change /veh NPB (11741838_a_at) / RFU TMPRSS6 (11731388_a_at) / Fold change /veh TMPRSS6 (11731388_a_at) / RFU KRTAP10-2 (11738614_at) / Fold change /veh KRTAP10-2 (11738614_at) / RFU ARHGAP8 /// PRR5-ARHGAP8 (11727945_x_at) / Fold change /veh ARHGAP8 /// PRR5-ARHGAP8 (11727945_x_at) / RFU KRTAP5-7 /// NADSYN1 (11734609_at) / Fold change /veh KRTAP5-7 /// NADSYN1 (11734609_at) / RFU RASL12 (11751679_a_at) / Fold change /veh RASL12 (11751679_a_at) / RFU CDKN2B (11736163_a_at) / Fold change /veh CDKN2B (11736163_a_at) / RFU PRF1 (11729649_at) / Fold change /veh PRF1 (11729649_at) / RFU, ZNF638 /// ZNF638-IT1 / Fold change vs veh, ZNF638 /// ZNF638-IT1 / RFU, PANK3 / Fold change vs veh, PANK3 / RFU, SH3YL1 / Fold change vs veh, SH3YL1 / RFU, ZEB2 / Fold change vs veh, ZEB2 / RFU, NRIP1 / Fold change vs veh, NRIP1 / RFU, PTTG1IP / Fold change vs veh, PTTG1IP / RFU, CAPN2 / Fold change vs veh, CAPN2 / RFU, MED14 / Fold change vs veh, MED14 / RFU, SNORA58 / Fold change vs veh, SNORA58 / RFU, C1orf63 / Fold change vs veh, C1orf63 / RFU, LRRFIP1 / Fold change vs veh, LRRFIP1 / RFU, NDUFAF7 / Fold change vs veh, NDUFAF7 / RFU, SLC12A2 / Fold change vs veh, SLC12A2 / RFU, IBTK / Fold change vs veh, IBTK / RFU, ESF1 / Fold change vs veh, ESF1 / Fold change vs veh, TMEM50B / RFU, TAOK1 / Fold change vs veh, TAOK1 / RFU, ACBD3 / Fold change vs veh, ACBD3 / RFU, TMA16 / Fold change vs veh, TMA16 / RFU, RWDD3 / Fold change vs veh, RWDD3 / RFU, BCAT1 / Fold change vs veh, BCAT1 / RFU, EDEM3 / Fold change vs veh, EDEM3 / RFU, TMEM33 / Fold change vs veh, TMEM33 / RFU, WDR75 / Fold change vs veh, WDR75 / RFU, AHCTF1 / Fold change vs veh, AHCTF1 / RFU, TFRC / Fold change vs veh, TFRC / RFU, ZDHHC17 / Fold change vs veh, ZDHHC17 / RFU, NOM1 / Fold change vs veh, NOM1 / RFU, ARL8B / Fold change vs veh, ARL8B / RFU, ZBTB11 / Fold change vs veh, ZBTB11 / RFU, TAMM41 / Fold change vs veh, TAMM41 / RFU, KIAA1704 /// LOC100996395 / Fold change vs veh, KIAA1704 /// LOC100996395 / RFU, ING1 / Fold change vs veh, ING1 / RFU, TRMT61B / Fold change vs veh, TRMT61B / RFU, FUBP3 / Fold change vs veh, FUBP3 / RFU, TP53 / Fold change vs veh, TP53 / RFU, TNKS2 / Fold change vs veh, TNKS2 / RFU, ZFP14 / Fold change vs veh, ZFP14 / RFU, ACTR2 / Fold change vs veh, ACTR2 / RFU, PPP3R1 / Fold change vs veh, PPP3R1 / RFU, PIK3R1 / Fold change vs veh, PIK3R1 / RFU, HNRNPA1 / Fold change vs veh, HNRNPA1 / RFU, RNF170 / Fold change vs veh, RNF170 / RFU, ZNF28 / Fold change vs veh, ZNF28 / RFU, RNGTT / Fold change vs veh, RNGTT / RFU, OGT / Fold change vs veh, OGT / RFU, BRD1 / Fold change vs veh, BRD1 / RFU, MARS / Fold change vs veh, MARS / RFU, ZNF655 / Fold change vs veh, ZNF655 / RFU, FAHD1 / Fold change vs veh, FAHD1 / RFU, BDP1 / Fold change vs veh, BDP1 / RFU, LRRCC1 / Fold change vs veh, LRRCC1 / RFU, ARID1A / Fold change vs veh, ARID1A / RFU, ZNF146 / Fold change vs veh, ZNF146 / RFU, ZNF330 / Fold change vs veh, ZNF330 / RFU, GPN3 / Fold change vs veh, GPN3 / RFU, C9orf123 / Fold change vs veh, C9orf123 / RFU, N4BP2L2 / Fold change vs veh, N4BP2L2 / RFU, ARFIP1 / Fold change vs veh, ARFIP1 / RFU, FAM179B / Fold change vs veh, FAM179B / RFU, BCL10 / Fold change vs veh, BCL10 / RFU, UHRF1BP1L / Fold change vs veh, UHRF1BP1L / RFU, BET1 / Fold change vs veh, BET1 / RFU, CNOT2 / Fold change vs veh, CNOT2 / RFU, ZNF268 / Fold change vs veh, ZNF268 / Fold change vs veh, ZNF507 / RFU, DGCR2 / Fold change vs veh, DGCR2 / RFU, WDSUB1 / Fold change vs veh, WDSUB1 / Fold change vs veh, HSP90B1 /// MIR3652 / RFU, ADSS / Fold change vs veh, ADSS / RFU, GK / Fold change vs veh, GK / RFU, ZNF148 / Fold change vs veh, ZNF148 / RFU, TAF9 / Fold change vs veh, TAF9 / RFU, SLC1A5 / Fold change vs veh, SLC1A5 / RFU, SLMO2 / Fold change vs veh, SLMO2 / RFU, ABCC4 / Fold change vs veh, ABCC4 / RFU, LOC101060439 /// RAP1B / Fold change vs veh, LOC101060439 /// RAP1B / RFU, RFX7 / Fold change vs veh, RFX7 / RFU, GTPBP10 / Fold change vs veh, GTPBP10 / RFU, CNEP1R1 / Fold change vs veh, CNEP1R1 / RFU, BIVM-ERCC5 /// ERCC5 / Fold change vs veh, BIVM-ERCC5 /// ERCC5 / RFU, ILF3 / Fold change vs veh, ILF3 / RFU 11762660_at / Fold change /veh 11762660_at / RFU VCAN (11757783_s_at) / Fold change /veh VCAN (11757783_s_at) / RFU DDX43 (11728927_at) / Fold change /veh DDX43 (11728927_at) / RFU KRT8 (11758188_x_at) / Fold change /veh KRT8 (11758188_x_at) / RFU NKD1 (11759106_at) / Fold change /veh NKD1 (11759106_at) / RFU SRD5A1 (11742802_a_at) / Fold change /veh SRD5A1 (11742802_a_at) / RFU TPSAB1 /// TPSB2 (11721975_s_at) / Fold change /veh TPSAB1 /// TPSB2 (11721975_s_at) / RFU GSTM3 (11746129_a_at) / Fold change /veh GSTM3 (11746129_a_at) / RFU IL23R (11737362_x_at) / Fold change /veh IL23R (11737362_x_at) / RFU TMEM51 (11727254_a_at) / Fold change /veh TMEM51 (11727254_a_at) / RFU PIWIL2 (11732686_x_at) / Fold change /veh PIWIL2 (11732686_x_at) / RFU ORM1 (11744905_x_at) / Fold change /veh ORM1 (11744905_x_at) / RFU CCDC152 (11743942_at) / Fold change /veh CCDC152 (11743942_at) / RFU ECM1 (11717891_a_at) / Fold change /veh ECM1 (11717891_a_at) / RFU IL23R (11748794_a_at) / Fold change /veh IL23R (11748794_a_at) / RFU TNFAIP8L3 (11732012_x_at) / Fold change /veh TNFAIP8L3 (11732012_x_at) / RFU MBOAT4 (11741988_at) / Fold change /veh MBOAT4 (11741988_at) / RFU 11764193_at / Fold change /veh 11764193_at / RFU TMEM53 (11763286_at) / Fold change /veh TMEM53 (11763286_at) / RFU MAGEB2 (11727129_at) / Fold change /veh MAGEB2 (11727129_at) / RFU TMEM200A (11744735_a_at) / Fold change /veh TMEM200A (11744735_a_at) / RFU CCDC152 (11751479_a_at) / Fold change /veh CCDC152 (11751479_a_at) / RFU FAM211A (11726209_a_at) / Fold change /veh FAM211A (11726209_a_at) / RFU RGS16 (11746705_a_at) / Fold change /veh RGS16 (11746705_a_at) / RFU VCAN (11755009_s_at) / Fold change /veh VCAN (11755009_s_at) / RFU RHOB (11743442_s_at) / Fold change /veh RHOB (11743442_s_at) / RFU RGS16 (11720943_a_at) / Fold change /veh RGS16 (11720943_a_at) / RFU RGS16 (11720944_at) / Fold change /veh RGS16 (11720944_at) / RFU, VPS4B / Fold change vs veh, VPS4B / RFU, CREB1 / Fold change vs veh, CREB1 / RFU, DNAJC13 / Fold change vs veh, DNAJC13 / RFU, GNAQ / Fold change vs veh, GNAQ / RFU, CDK5R1 / Fold change vs veh, CDK5R1 / RFU, ZRANB3 / Fold change vs veh, ZRANB3 / RFU, CUL4A / Fold change vs veh, CUL4A / RFU, CCNY / Fold change vs veh, CCNY / RFU, UFL1 / Fold change vs veh, UFL1 / RFU, COG3 / Fold change vs veh, COG3 / RFU, DIAPH2 / Fold change vs veh, DIAPH2 / RFU, SKA2 / Fold change vs veh, SKA2 / RFU, AFF3 / Fold change vs veh, AFF3 / RFU, LMF1 / Fold change vs veh, LMF1 / RFU, IPO11 / Fold change vs veh, IPO11 / RFU, DFFB / Fold change vs veh, DFFB / RFU, FOXP1 / Fold change vs veh, FOXP1 / RFU, CARD8 / Fold change vs veh, CARD8 / RFU, STRN3 / Fold change vs veh, STRN3 / RFU, ADK / Fold change vs veh, ADK / RFU, RASSF2 / Fold change vs veh, RASSF2 / RFU, WIPF1 / Fold change vs veh, WIPF1 / RFU, LARP1B / Fold change vs veh, LARP1B / RFU, RASA1 / Fold change vs veh, RASA1 / RFU, RB1 / Fold change vs veh, RB1 / RFU, PPFIA1 / Fold change vs veh, PPFIA1 / RFU, MAT2A / Fold change vs veh, MAT2A / RFU, CCT5 / Fold change vs veh, CCT5 / RFU, WDR92 / Fold change vs veh, WDR92 / RFU, CUX1 / Fold change vs veh, CUX1 / RFU, TTC7A / Fold change vs veh, TTC7A / RFU, TMEM135 / Fold change vs veh, TMEM135 / RFU, DEPTOR / Fold change vs veh, DEPTOR / RFU, CPM / Fold change vs veh, CPM / RFU, DNAJB6 / Fold change vs veh, DNAJB6 / RFU, CACNA2D3 / Fold change vs veh, CACNA2D3 / RFU, DTX4 / Fold change vs veh, DTX4 / RFU, TFCP2 / Fold change vs veh, TFCP2 / RFU, GMCL1 /// GMCL1P1 / Fold change vs veh, GMCL1 /// GMCL1P1 / RFU, AEBP2 / Fold change vs veh, AEBP2 / RFU, SNHG1 /// SNORD22 /// SNORD25 /// SNORD26 /// SNORD27 /// SNORD28 /// SNORD29 /// SNORD31 / Fold change vs veh, SNHG1 /// SNORD22 /// SNORD25 /// SNORD26 /// SNORD27 /// SNORD28 /// SNORD29 /// SNORD31 / Fold change (Aza/veh), C12orf56 (ProbeSet 11735607_a_at) / Fold change (ACY-1035/veh), C12orf56 (ProbeSet 11735607_a_at) / Fold change (Aza/veh), FGFR1OP (ProbeSet 11751329_s_at) / Fold change (ACY-1035/veh), FGFR1OP (ProbeSet 11751329_s_at) / Fold change (Aza/veh), VPS36 (ProbeSet 11739960_a_at) / Fold change (ACY-1035/veh), VPS36 (ProbeSet 11739960_a_at) / RFU SYPL1 (11715823_x_at) / Fold change /veh SYPL1 (11715823_x_at) / RFU IGFBP7 (11715501_s_at) / Fold change /veh IGFBP7 (11715501_s_at) / RFU REEP3 (11722064_at) / Fold change /veh REEP3 (11722064_at) / RFU IGLL1 (11728026_x_at) / Fold change /veh IGLL1 (11728026_x_at): dose or concentration left out as unconfirmed. The note with it: MV-4-11 cells, 48 hours.

As for `Nc1ccc(-c2cccs2)cc1NC(=O)c1ccc2c(c1)cc(C1CC1)n2CCN1CCOCC1` [ACY-1035], the “Fold change /veh TUBB4B (11761932_at)” value turned out to be 1.03.
